One assay concerns immature B cells. Put plainly: Apoptosis assay (relative DNA content, propidium iodide flow cytometry) in immature B cells. In kind it is cell-based, mouse. The conditions noted are these: late-stage immature B cells, 18 hours, anti-IgM F(ab′)2 50 μg/ml plus phorbol ester (PMA 10 ng/ml). The procedure:
Experiments were performed using an in vitro model system that makes use of an immature population of B cells purified from the spleens of adult mice after sublethal irradiation. Immature B cells obtained from these autoreconstituting mice are phenotypically immature and respond identically to immature B cells purified from either […] bone marrow (Norvell, A. et al. 1995. J. Immunol. 154:4404; Norvell, A. and J. G. Monroe. 1996. J. Immunol. 156:1328). This homogeneous population of immature B cells is devoid of pre-B cells and mature B cells found in neonatal spleen and adult bone marrow, respectively. Further, unlike the immature B cells purified from either bone marrow or neonatal spleen, immature B cells from autoreconstituting mice can be isolated without positive selection on anti-Ig panning plates. Since large numbers of unmanipulated immature B cells can be obtained, autoreconstituting B cells are an ideal system for analyzing biochemical events responsible for tolerogenic signal transduction. The B cells isolated from these mice represent a transitional stage of development in which cells are subject to negative selection. This in vitro system uses apoptosis as an indicator of negative selection.
Purified populations of either immature B cells obtained from the spleens of day 14 autoreconstituting mice or mature B cells isolated from spleens of normal adult mice were incubated in the absence or presence of 50 μg/ml of rabbit anti-mouse IgM F(ab′)2 fragments (anti-Ig) for 16-18 hours. […]
The ability of PMA to protect immature B cells from BCR-induced apoptosis was assessed in the presence of the same two inhibitors. […]
(§1) Purified B cells were cultured under various conditions overnight in either sterile 2 ml click-cap tubes or 96-well plates. […] The cells were stained at 4° C. overnight and analyzed by flow cytometry on a Becton Dickinson FACScan using LYSYS II software. The mean percentages of apoptotic cells and the standard errors for each culture condition were determined and significance was assessed by the Student's t-test.

The target of the next assay is T1, PKCδ (Mus musculus, UniProt P28867).
T1 construct: endogenous in cells; host or cells: primary mature splenic B cells of mice
T1 sequence (P28867 whole entry): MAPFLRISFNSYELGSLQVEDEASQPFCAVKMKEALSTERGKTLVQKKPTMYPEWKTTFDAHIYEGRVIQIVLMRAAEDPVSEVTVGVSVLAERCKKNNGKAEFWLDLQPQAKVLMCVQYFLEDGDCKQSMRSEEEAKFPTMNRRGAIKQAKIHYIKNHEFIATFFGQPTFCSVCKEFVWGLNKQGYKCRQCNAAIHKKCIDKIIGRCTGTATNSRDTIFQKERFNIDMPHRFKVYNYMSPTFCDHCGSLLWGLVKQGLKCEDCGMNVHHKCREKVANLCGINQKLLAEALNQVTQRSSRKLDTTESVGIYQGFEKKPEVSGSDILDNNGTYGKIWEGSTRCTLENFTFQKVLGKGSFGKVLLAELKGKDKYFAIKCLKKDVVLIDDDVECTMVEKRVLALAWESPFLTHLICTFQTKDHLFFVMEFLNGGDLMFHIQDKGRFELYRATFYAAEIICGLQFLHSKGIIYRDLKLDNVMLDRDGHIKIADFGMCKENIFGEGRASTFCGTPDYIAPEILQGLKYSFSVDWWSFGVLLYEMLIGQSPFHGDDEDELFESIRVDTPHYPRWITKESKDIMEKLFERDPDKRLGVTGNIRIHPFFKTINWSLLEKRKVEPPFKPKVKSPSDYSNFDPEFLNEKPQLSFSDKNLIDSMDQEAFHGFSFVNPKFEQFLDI
Put plainly: PKC depletion monitored by Western blot analysis. In kind it is cell-based. The conditions noted are these: PDBu-treated B cells. The procedure: (§2) Therefore, experiments were performed to determine if PKC-depleted mature B cells were susceptible to BCR-induced apoptosis. […] PKC depletion in PDBu- or mock-treated cultures was monitored by Western blot analysis. […] PKC levels in unstimulated immature and mature cells were quite similar, making it unlikely that differential regulation of PKC activity would occur at the level of expression of the individual isoenzyes.
(§3) For analysis of postnuclear extracts, 1×10^7 cells were lysed in 50 μl of Triton-X lysis buffer (0.1% Triton-X-100; 100 mM Tris, pH 8.0; 10.8 μg/ml aprotinin; 1.5 μg/ml each of leupeptin, pepstatin A, chymostatin, and antipain; 2 mM phenylmethylsulfonyl fluoride; 1 mM N-ethylmaleimide) on ice for 30 minutes. Lysates were microcentrifuged at 14,000× g at 4° C. for 10 minutes to remove the Triton-X insoluble fraction. Lysates from equivalent cell numbers were fractionated on SDS-PAGE gels and electroblotted onto Immobilon (Millipore, Bedford, Mass.). Blots were incubated overnight in Tris-buffered saline with Tween-TBST (10 mM Tris, pH 8.0; 137 mM NaCl; 0.05% Tween 20) plus 2% bovine serum albumin to block nonspecific binding. Membranes were washed twice with TBST and probed with the appropriate antibody solutions for 90 minutes, then washed 3 times in TBST, followed by secondary incubation with the appropriate horseradish peroxidase-conjugated reagents. Three washes with TBST were conducted before detection with an enhanced chemiluminescence system.

The target in a further assay is T2, PKCε (Mus musculus, UniProt P16054).
T2 construct: endogenous in cells; host or cells: primary mature splenic B cells of mice
T2 sequence (P16054 1-737): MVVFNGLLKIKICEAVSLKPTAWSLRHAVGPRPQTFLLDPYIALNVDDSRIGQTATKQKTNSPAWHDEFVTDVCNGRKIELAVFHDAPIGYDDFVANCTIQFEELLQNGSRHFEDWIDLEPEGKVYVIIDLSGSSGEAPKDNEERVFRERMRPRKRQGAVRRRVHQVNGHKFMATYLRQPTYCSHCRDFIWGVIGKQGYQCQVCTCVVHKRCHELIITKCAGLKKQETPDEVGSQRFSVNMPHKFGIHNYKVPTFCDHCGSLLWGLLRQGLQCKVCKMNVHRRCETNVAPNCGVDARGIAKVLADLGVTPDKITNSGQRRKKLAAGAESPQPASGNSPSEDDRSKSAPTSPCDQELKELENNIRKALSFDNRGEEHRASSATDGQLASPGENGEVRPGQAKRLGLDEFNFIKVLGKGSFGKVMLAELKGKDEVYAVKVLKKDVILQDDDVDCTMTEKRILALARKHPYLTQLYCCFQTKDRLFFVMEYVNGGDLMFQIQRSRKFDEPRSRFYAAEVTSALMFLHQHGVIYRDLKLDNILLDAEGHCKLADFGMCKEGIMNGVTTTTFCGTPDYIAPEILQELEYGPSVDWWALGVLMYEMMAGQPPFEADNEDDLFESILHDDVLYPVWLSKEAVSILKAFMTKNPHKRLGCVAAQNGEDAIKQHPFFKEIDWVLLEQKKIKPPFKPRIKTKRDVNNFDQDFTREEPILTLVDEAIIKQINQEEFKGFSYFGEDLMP
Put plainly: PKC depletion monitored by Western blot analysis. In kind it is cell-based. To be noted: PDBu-treated B cells. The procedure:
as §2, §3

The next assay concerns the target T3, PKCβ (Mus musculus, UniProt P68404).
T3 construct: endogenous in cells; host or cells: primary mature splenic B cells of mice
Put plainly: PKC depletion monitored by Western blot analysis. To be noted: PDBu-treated B cells. In kind it is cell-based. The protocol: as §2, §3

For assay [1], the system named is PKC-depleted mature B cells. Put plainly: Modified TUNEL analysis of PKC-depleted mature B cells. In kind it is cell-based, mouse. The protocol: To assess the role of PKC activation in the prevention of antigen-mediated apoptosis, the ability of anti-Ig to induce apoptosis in PKC-depleted mature B cells was determined. […] After overnight treatment, the cells were washed expansively and subjected to an apoptotis analysis in which B cells were recultured with medium alone, anti-Ig, anti-Ig and PMA or anti-Ig and 4αPDD. After 8 hours incubation, the cells were harvested and subjected to a modified TUNEL analysis. […]. After PKC depletion, mature B cells were specifically susceptible to anti-Ig-mediated apoptosis.
In some cases, the frequency of apoptotic cells was quantitated using a modified TUNEL assay. Briefly, 1×10^6 cells were fixed in 2.5% formaldehyde in 1xPBS. The fixed cells were permeabilized in 0.2 ml 0.1% Triton/0.1% citrate for 2 minutes on ice. After washing, cells were incubated in 50 μl of nick translation reagent, which consists of 5 μl nick translation buffer (500 mM Tris, pH 7.5; 100 mM MgSO4; 1 mM DTT), 0.03 μl of fluorescein-dUTP (1 nmol/μl), 1 µl dTTP (0.7 nmol/μl), 1 μl each of dATP, dCTP, dGTP (1 nmol/μl) and 0.1 μl DNA polymerase (5 U/μl) and incubated for at least 1 hour at 37° C. Cells were then washed and analyzed by flow cytometry.

Assay [2] concerns BCR-induced increase in intracellular calcium. Put plainly: Measurement of intracellular calcium in Fura-2-AM loaded B cells. In kind it is cell-based, mouse. The protocol:
Since PMA was capable of rescuing mature, PKC-depleted B cells from anti-Ig-induced apoptosis, experiments were performed to assess whether PMA was capable of desensitizing the BCR in these cells.
Purified B cells were washed in HBSS without phenol red and supplemented with 2% FCS. For loading, cells were resuspended in HBSS without phenol red and supplemented with 10% FCS. Fura-2 acetoxymethyl ester was added to a final concentration of 1 μM from a 1 mM stock made in DMSO. Cells were incubated in light tight tubes for 30 minutes at 30° C. with occasional inversion. Cells were then washed twice with HEBSS+2% FCS and resuspended at a concentration of 3.3×10^7/ml in HBSS+10% FCS. Fluorometric analysis of dyed cells was performed using a luminescence spectrometer. Excitation was at 340 nm and 380 nM with emission monitored at 510 nm. B cells were diluted to 2×10^6/ml in HBSS and equilibrated for 2 minutes, at which time a baseline spectrum was read. The cells were stimulated with rabbit anti-mouse IgM F(ab′)2 fragments (50 μg/ml) and the response measured. Cells were then lysed with Triton X-100 and Fmax and Fmin were measured by the chelation of extracellular calcium with the addition of EGTA. Calcium traces were calculated by the Intracellular Biochemistry Application (Perkin-Elmer) using these values.

Another assay deals with mature B cells. Put plainly: Apoptosis assay (propidium iodide flow cytometry) in mature B cells. In kind it is cell-based, mouse. To be noted: inhibitor added 15 minutes before stimulation with anti-Ig. The procedure:
Purified populations of either immature B cells obtained from the spleens of day 14 autoreconstituting mice or mature B cells isolated from spleens of normal adult mice were incubated in the absence or presence of 50 μg/ml of rabbit anti-mouse IgM F(ab′)2 fragments (anti-Ig) for 16-18 hours. […] Similar results were observed using a modified TUNEL technique that detects nicked DNA.
The role of PKC in preventing BCR-induced apoptosis of immature B cells was also examined using inhibitors of PKC.
as §1, with “plates. PKC inhibitors were added 15 minutes before the addition of the stimulant. After 14-18 hours in the case of immature B cells or 24 hours in the case of mature B cells, the cells were harvested and washed in PBS containing 2% FCS. Cells were fixed and permeabilized by resuspending in 70% ethanol made in 1xPBS and incubating at −20° C. for at least 2 hours.” for “plates.”

The structures appear in SMILES notation.

T3 sequence (P68404 whole entry): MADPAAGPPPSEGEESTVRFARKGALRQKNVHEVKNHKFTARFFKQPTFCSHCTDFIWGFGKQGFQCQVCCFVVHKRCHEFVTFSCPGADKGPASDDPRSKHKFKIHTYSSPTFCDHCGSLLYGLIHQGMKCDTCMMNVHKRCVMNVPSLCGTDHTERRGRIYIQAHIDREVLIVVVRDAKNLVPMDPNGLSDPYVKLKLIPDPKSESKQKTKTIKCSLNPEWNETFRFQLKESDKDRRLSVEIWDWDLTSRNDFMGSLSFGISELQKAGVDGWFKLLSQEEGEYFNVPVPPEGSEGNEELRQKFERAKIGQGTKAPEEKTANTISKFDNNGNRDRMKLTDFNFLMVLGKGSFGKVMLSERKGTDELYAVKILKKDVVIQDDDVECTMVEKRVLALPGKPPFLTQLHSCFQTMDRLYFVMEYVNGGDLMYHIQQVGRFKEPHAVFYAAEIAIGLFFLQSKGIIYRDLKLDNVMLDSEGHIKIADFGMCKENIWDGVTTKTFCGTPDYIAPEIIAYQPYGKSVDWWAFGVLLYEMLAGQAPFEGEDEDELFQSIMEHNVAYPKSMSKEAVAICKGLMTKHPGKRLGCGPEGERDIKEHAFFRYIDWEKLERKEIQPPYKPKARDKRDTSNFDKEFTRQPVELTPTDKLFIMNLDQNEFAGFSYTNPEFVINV

Take `CCCCCCCCCC(=O)O[C@@H]1[C@@H](C)[C@@]2(O)[C@@H](C=C(CO)C[C@@]3(O)C(=O)C(C)=C[C@@H]23)[C@@H]2C(C)(C)[C@]12OC(=O)CCCCCCCCC` [4αPDD]: the “protection (rescue) from anti-IgM-induced apoptosis” value (“protection (rescue)” for short) in the assay with immature B cells is “efficiently rescued cells”.
As for `CCCCCCCCCC(=O)O[C@@H]1[C@@H](C)[C@@]2(O)[C@@H](C=C(CO)C[C@]3(O)C(=O)C(C)=C[C@@H]23)[C@@H]2C(C)(C)[C@]12OC(=O)CCCCCCCCC` [4βPDD], the “protection (rescue)” value in the assay with immature B cells is given as “did not rescue cells”.
On to `CCCC(=O)O[C@@H]1[C@@H](C)[C@@]2(O)[C@@H](C=C(CO)C[C@]3(O)C(=O)C(C)=C[C@@H]23)[C@@H]2C(C)(C)[C@]12OC(=O)CCC` [PDBu], for which the “depletion of PKCδ” value at PKCδ is given as “also depleted, although not as efficiently”. Also, the “depletion of PKCε” value at PKCε is “also depleted, although not as efficiently”. Further, the “depletion of PKCβ” value at PKCβ is listed as “efficiently depleted”. Moreover, the “number of apoptotic cells after anti-Ig” value in assay [1] (mature B cells cultured overnight with 100 ng/ml PDBu, washed, recultured 8 hours with anti-Ig) is “significant and striking increase in the number of apoptotic cells”.
In the case of `CCCCCCCCCCCCCC(=O)O[C@@H]1[C@@H](C)[C@@]2(O)[C@@H](C=C(CO)C[C@]3(O)C(=O)C(C)=C[C@@H]23)[C@@H]2C(C)(C)[C@]12OC(C)=O` [PMA], the “effect on BCR-induced calcium flux” value in assay [2] (PDBu-treated cells) is listed as “did not alter the BCR-induced calcium flux”. In addition, the “effect on BCR-induced increase in intracellular calcium” value in assay [2] (mock-treated B cells) was “efficiently reduced the BCR-induced increase in intracellular calcium”. Besides, in the assay on immature B cells, the “protection (rescue)” value is recorded as “significant protection from anti-IgM-induced apoptosis”. Also, in assay [1] (PDBu-treated (PKC-depleted) mature B cells, anti-Ig and PMA, 8 hours), the “rescue from anti-Ig-induced apoptosis” value is on record as “still capable of rescuing the cells from anti-Ig-induced apoptosis”.
Regarding `CN(C)C[C@H]1CCn2c(c(C3=C(c4cn(C)c5ccccc45)C(=O)NC3=O)c3ccccc32)C1` [Ro-32-0432], the induction of apoptosis entry with mature B cells is listed as “led to induction of apoptosis”.
For the molecule `CN(C)CCCn1cc(C2=C(c3c[nH]c4ccccc34)C(=O)NC2=O)c2ccccc21` [bisindoylmaleimide I], the induction of apoptosis result with mature B cells is listed as “led to induction of apoptosis”.

(Values after patent US20020019332A1, “METHOD OF INDUCING APOPTOSIS IN B-LYMPHOCYTES” (priority 1999, published 2002).)
